Data taken from ChEMBL document CHEMBL2440076, “New triarylpyrazoles as broad-spectrum anticancer agents: design, synthesis, and biological evaluation” (Eur J Med Chem, 2013).

Key:
Format in all cases: functional
HOP-92 = assay: Growth inhibition of human HOP92 cells assessed as cell growth at 5X10'-8 M after 48 hrs by sulforhodamine B assay; settings: HOP-92, 48 h, read-out: Activity
OVCAR-8 = assay: Growth inhibition of human OVCAR8 cells assessed as cell growth at 5X10'-5 M after 48 hrs by sulforhodamine B assay; settings: OVCAR-8, 48 h, read-out: Activity
HCT-116 [1] = assay: Growth inhibition of human HCT116 cells assessed as cell growth at 5X10'-5 M after 48 hrs by sulforhodamine B assay; settings: HCT-116, 48 h, read-out: Activity
MDA-MB-468 = assay: Growth inhibition of human MDA-MB-468 cells assessed as cell growth at 5X10'-6 M after 48 hrs by sulforhodamine B assay; settings: MDA-MB-468, 48 h, read-out: Activity
HT-29 [2] = assay: Growth inhibition of human HT-29 cells assessed as cell growth at 5X10'-5 M after 48 hrs by sulforhodamine B assay; settings: HT-29, 48 h, read-out: Activity
SF-295 [3] = assay: Growth inhibition of human SF295 cells assessed as cell growth at 5X10'-6 M after 48 hrs by sulforhodamine B assay; settings: SF-295, 48 h, read-out: Activity
SF-295 [4] = assay: Growth inhibition of human SF295 cells assessed as cell growth at 5X10'-7 M after 48 hrs by sulforhodamine B assay; settings: SF-295, 48 h, read-out: Activity
HOP-62 [5] = assay: Growth inhibition of human HOP62 cells assessed as cell growth at 5X10'-7 M after 48 hrs by sulforhodamine B assay; settings: HOP-62, 48 h, read-out: Activity
SF-268 = assay: Growth inhibition of human SF268 cells assessed as cell growth at 5X10'-5 M after 48 hrs by sulforhodamine B assay; settings: SF-268, 48 h, read-out: Activity
MDA-MB-435 = assay: Growth inhibition of human MDA-MB-435 cells assessed as cell growth at 5X10'-8 M after 48 hrs by sulforhodamine B assay; settings: MDA-MB-435, 48 h, read-out: Activity
UACC-62 [6] = assay: Growth inhibition of human UACC62 cells assessed as cell growth at 5X10'-7 M after 48 hrs by sulforhodamine B assay; settings: UACC-62, 48 h, read-out: Activity
NCI-H322M [7] = assay: Growth inhibition of human NCI-H322M cells assessed as cell growth at 5X10'-5 M after 48 hrs by sulforhodamine B assay; settings: read-out: Activity
HCT-15 [8] = assay: Growth inhibition of human HCT15 cells assessed as cell growth at 5X10'-7 M after 48 hrs by sulforhodamine B assay; settings: HCT-15, 48 h, read-out: Activity
786-0 = assay: Growth inhibition of human 786-0 cells assessed as cell growth at 5X10'-7 M after 48 hrs by sulforhodamine B assay; settings: 786-0, 48 h, read-out: Activity
HCT-116 [9] = assay: Growth inhibition of human HCT116 cells assessed as cell growth at 5X10'-7 M after 48 hrs by sulforhodamine B assay; settings: HCT-116, 48 h, read-out: Activity
SK-MEL-28 = assay: Growth inhibition of human SK-MEL-28 cells assessed as cell growth at 5X10'-9 M after 48 hrs by sulforhodamine B assay; settings: SK-MEL-28, 48 h, read-out: Activity
HOP-62 [10] = assay: Growth inhibition of human HOP62 cells assessed as cell growth at 5X10'-6 M after 48 hrs by sulforhodamine B assay; settings: HOP-62, 48 h, read-out: Activity
LOX IMVI = assay: Growth inhibition of human LOXIMVI cells assessed as cell growth at 5X10'-8 M after 48 hrs by sulforhodamine B assay; settings: read-out: Activity
HCT-15 [11] = assay: Growth inhibition of human HCT15 cells assessed as cell growth at 5X10'-9 M after 48 hrs by sulforhodamine B assay; settings: HCT-15, 48 h, read-out: Activity
SNB-19 = assay: Growth inhibition of human SNB19 cells assessed as cell growth at 5X10'-6 M after 48 hrs by sulforhodamine B assay; settings: SNB-19, 48 h, read-out: Activity
NCI-H460 = assay: Growth inhibition of human NCI-H460 cells assessed as cell growth at 5X10'-6 M after 48 hrs by sulforhodamine B assay; settings: NCI-H460, 48 h, read-out: Activity
A549 = assay: Growth inhibition of human A549/ATCC cells assessed as cell growth at 5X10'-9 M after 48 hrs by sulforhodamine B assay; settings: A549, 48 h, read-out: Activity
NCI-H322M [12] = assay: Growth inhibition of human NCI-H322M cells assessed as cell growth at 5X10'-6 M after 48 hrs by sulforhodamine B assay; settings: read-out: Activity
MOLT-4 = assay: Growth inhibition of human MOLT4 cells assessed as cell growth at 5X10'-9 M after 48 hrs by sulforhodamine B assay; settings: MOLT-4, 48 h, read-out: Activity
MDA-MB-231 = assay: Growth inhibition of human MDA-MB-231 cells assessed as cell growth at 5X10'-8 M after 48 hrs by sulforhodamine B assay; settings: MDA-MB-231, 48 h, read-out: Activity
SNB-75 = assay: Growth inhibition of human SNB75 cells assessed as cell growth at 5X10'-5 M after 48 hrs by sulforhodamine B assay; settings: SNB-75, 48 h, read-out: Activity
HCT-15 [13] = assay: Growth inhibition of human HCT15 cells assessed as cell growth at 5X10'-6 M after 48 hrs by sulforhodamine B assay; settings: HCT-15, 48 h, read-out: Activity
OVCAR-5 = assay: Growth inhibition of human OVCAR5 cells assessed as cell growth at 5X10'-7 M after 48 hrs by sulforhodamine B assay; settings: OVCAR-5, 48 h, read-out: Activity
UACC-62 [14] = assay: Growth inhibition of human UACC62 cells assessed as cell growth at 5X10'-8 M after 48 hrs by sulforhodamine B assay; settings: UACC-62, 48 h, read-out: Activity
HT-29 [15] = assay: Growth inhibition of human HT-29 cells assessed as cell growth at 5X10'-9 M after 48 hrs by sulforhodamine B assay; settings: HT-29, 48 h, read-out: Activity
COLO 205 = assay: Growth inhibition of human COLO205 cells assessed as cell growth at 5X10'-9 M after 48 hrs by sulforhodamine B assay; settings: COLO 205, 48 h, read-out: Activity
RXF 393 = assay: Growth inhibition of human RXF393 cells assessed as cell growth at 5X10'-5 M after 48 hrs by sulforhodamine B assay; settings: RXF 393, 48 h, read-out: Activity
IGROV-1 = assay: Growth inhibition of human IGROV1 cells assessed as cell growth at 5X10'-9 M after 48 hrs by sulforhodamine B assay; settings: IGROV-1, 48 h, read-out: Activity
K562 = assay: Growth inhibition of human K562 cells assessed as cell growth at 5X10'-8 M after 48 hrs by sulforhodamine B assay; settings: K562, 48 h, read-out: Activity
OVCAR-4 = assay: Growth inhibition of human OVCAR4 cells assessed as cell growth at 5X10'-8 M after 48 hrs by sulforhodamine B assay; settings: OVCAR-4, 48 h, read-out: Activity
NCI-H322M [16] = assay: Growth inhibition of human NCI-H322M cells assessed as cell growth at 5X10'-9 M after 48 hrs by sulforhodamine B assay; settings: read-out: Activity

In the case of `COc1cc(-c2nn(-c3cccc(NC(=O)c4cccc(C(F)(F)F)c4)c3)cc2-c2ccncc2)ccc1Cl`, the growth at 0.05 µM (HOP-92) was 81%, the growth at 50 µM (OVCAR-8) was 10% and the growth at 50 µM (HCT-116 [1]) was 9%. The growth at 5 µM (MDA-MB-468) was -4%, the growth at 50 µM (HT-29 [2]) was -4% and the growth at 5 µM (SF-295 [3]) was -24%. The growth at 0.5 µM (SF-295 [4]) was 83%, the growth at 0.5 µM (HOP-62 [5]) was 97% and the growth at 50 µM (SF-268) was 8%. For the same compound, the growth at 0.05 µM (MDA-MB-435) was 100%, the growth at 0.5 µM (UACC-62 [6]) was 83% and the growth at 50 µM (NCI-H322M [7]) was 46%. The growth at 0.5 µM (HCT-15 [8]) was 84%, the growth at 0.5 µM (786-0) was 101% and the growth at 0.5 µM (HCT-116 [9]) was 92%. For the same compound, the growth at 0.005 µM (SK-MEL-28) was 103%, the growth at 5 µM (HOP-62 [10]) was 47% and the growth at 0.05 µM (LOX IMVI) was 91%. For the same compound, the growth at 0.005 µM (HCT-15 [11]) was 98%, the growth at 5 µM (SNB-19) was 28% and the growth at 5 µM (NCI-H460) was 4%. The growth at 0.005 µM (A549) was 102%, the growth at 5 µM (NCI-H322M [12]) was 52% and the growth at 0.005 µM (MOLT-4) was 99%. For the same compound, the growth at 0.05 µM (MDA-MB-231) was 97%, the growth at 50 µM (SNB-75) was 8% and the growth at 5 µM (HCT-15 [13]) was 15%. The growth at 0.5 µM (OVCAR-5) was 85%, the growth at 0.05 µM (UACC-62 [14]) was 96% and the growth at 0.005 µM (HT-29 [15]) was 96%. It also gave a growth at 0.005 µM (COLO 205) of 108%, a growth at 50 µM (RXF 393) of -2% and a growth at 0.005 µM (IGROV-1) of 102%. It also gave a growth at 0.05 µM (K562) of 94%, a growth at 0.05 µM (OVCAR-4) of 98% and a growth at 0.005 µM (NCI-H322M [16]) of 91%.
